Test results reported in PubChem BioAssay (NCI).
Values joined by “and” are separate entries in the source; they are usually repeats but may differ in a detail not shown here. Identical values can stand only once.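 48-hour exposure; five concentrations; linearly interpolated endpoints. GI50 marks 50% less growth. TGI marks complete inhibition of growth.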

Columns and labels:
Assay in all cases: NCI-60 cell line screen, 48 h
UACC-62 melanoma = tested on: UACC-62 melanoma
CAKI-1 renal = tested on: CAKI-1 renal
MCF7 breast = tested on: MCF7 breast
PC-3 prostate = tested on: PC-3 prostate
OVCAR-3 ovarian = tested on: OVCAR-3 ovarian
SR leukemia = tested on: SR leukemia
A498 renal = tested on: A498 renal
OVCAR-4 ovarian = tested on: OVCAR-4 ovarian
DU-145 prostate = tested on: DU-145 prostate
HL-60(TB) leukemia = tested on: HL-60(TB) leukemia

SMILES	TGI (UACC-62 melanoma)	TGI (CAKI-1 renal)	TGI (MCF7 breast)	TGI (PC-3 prostate)	TGI (OVCAR-3 ovarian)	TGI (SR leukemia)	TGI (A498 renal)	TGI (OVCAR-4 ovarian)	TGI (DU-145 prostate)	TGI (HL-60(TB) leukemia)	GI50 (UACC-62 melanoma)	GI50 (CAKI-1 renal)	GI50 (MCF7 breast)	GI50 (PC-3 prostate)	GI50 (OVCAR-3 ovarian)	GI50 (SR leukemia)	GI50 (A498 renal)	GI50 (OVCAR-4 ovarian)	GI50 (DU-145 prostate)	GI50 (HL-60(TB) leukemia)
NC(Cc1c[nH]c2ccc([N+](=O)[O-])cc12)C(=O)O (stereo not given)	> 100 µM	> 100 µM	> 100 µM	> 100 µM	> 100 µM	> 100 µM	> 100 µM	> 100 µM	> 100 µM	> 100 µM	–	–	–	–	–	–	–	–	–	–
CC(=O)Nc1cc2cc(NS(=O)(=O)c3ccc(Cl)c(Cl)c3)ccc2oc1=O	62.8 µM	56.4 µM	47.7 µM	51.1 µM	> 100 µM	> 100 µM	40.7 µM	> 100 µM	> 100 µM	> 100 µM	–	–	–	–	–	–	–	–	–	–
Cn1cc(C2=C(c3cn(CCCN)c4ccccc34)C(=O)NC2=O)c2ccccc21	8.05 µM	> 15.9 µM	10.4 µM	24.6 µM	16.2 µM	13.8 µM	9.18 µM	12.9 µM	18.7 µM	11.6 µM	4.35 µM	4.94 µM	3.55 µM	7.63 µM	5.86 µM	2.53 µM	3.92 µM	4.22 µM	6.71 µM	5.04 µM
CS(=O)(=O)c1cccc(Nc2ncc3cc(-c4ccccc4Cl)ccc3n2)c1	5.74 µM	9.57 µM	> 33.3 µM	> 33.3 µM	> 33.3 µM	> 33.3 µM	12.1 µM	> 33.3 µM	> 33.3 µM	> 33.3 µM	1.17 µM	0.859 µM	1.37 µM	1.79 µM	1.52 µM	0.8 µM	1.75 µM	1.51 µM	1.42 µM	1.36 µM
COC1C=COC2(C)Oc3c(C)c(O)c4c(O)c(c(C5SCCS5)c(O)c4c3C2=O)NC(=O)/C(C)=C\C=CC(C)C(O)C(C)C(O)C(C)C(OC(C)=O)C1C (stereo not given)	19.2 µM	22.8 µM	24.2 µM	20 µM	20.4 µM	7.14 µM	26.5 µM	20.5 µM	13.1 µM	12.5 µM	–	–	–	–	–	–	–	–	–	–
O=C(c1ccc([N+](=O)[O-])cc1)C(Br)C(Br)c1ccnc2ccccc12 (stereo not given)	24.6 µM	24.6 µM	8.86 µM	21.1 µM	23.1 µM	5.69 µM	25.7 µM	25.5 µM	24.4 µM	9.99 µM	–	–	–	–	–	–	–	–	–	–
O=C(NCCOCCOCCOCCNC(=O)c1cc2c(o1)C(=O)c1ccccc1C2=O)NC12CC3CC(CC(C3)C1)C2	1.92 µM	11.5 µM	3.22 µM	13.4 µM	4.4 µM	11.7 µM	3.3 µM	2.27 µM	1.89 µM	6.46 µM	0.571 µM	2.37 µM	1.16 µM	1.95 µM	1.41 µM	2.37 µM	1.69 µM	1.02 µM	0.628 µM	2.16 µM
CC(=O)/C(Br)=C/c1ccc(Br)o1	28.3 µM	12.4 µM	14.4 µM	27.1 µM	14.5 µM	5.42 µM	33.7 µM	22 µM	18.3 µM	8.58 µM	14 µM	6.05 µM	3.67 µM	8.94 µM	4.16 µM	1.72 µM	17.4 µM	9.35 µM	6.19 µM	2.53 µM
Oc1[nH]c2ccccc2c1/C=c1/ccc2c(c1)N=C(c1ccc(C(F)(F)F)cc1)N=2	15.8 µM	13.6 µM	12.9 µM	3.75 µM	3.89 µM	4.54 µM	11.2 µM	15.8 µM	16 µM	5.27 µM	2.62 µM	3.11 µM	2.98 µM	1.54 µM	0.74 µM	1.7 µM	1.54 µM	3.94 µM	4.11 µM	2.26 µM
c1ccc(Oc2ccc(Nc3ncc(-c4ccccc4)o3)cc2)cc1	> 25 µM	> 25 µM	> 25 µM	> 25 µM	> 25 µM	> 25 µM	> 25 µM	> 25 µM	> 25 µM	> 25 µM	> 25 µM	> 25 µM	> 25 µM	> 25 µM	> 25 µM	> 25 µM	> 25 µM	> 25 µM	> 25 µM	> 25 µM
COc1cc(-c2nc3ccccc3o2)cc(CN2CCCCC2)c1O	3.2 µM	> 100 µM	4.34 µM	> 100 µM	39.7 µM	71.9 µM	24.5 µM	> 71.8 µM	3.33 µM	36.9 µM	1.63 µM	14.3 µM	1.58 µM	0.664 µM	2.75 µM	5.24 µM	10 µM	9.48 µM	1.82 µM	4.77 µM
COc1cc([N+](=O)[O-])c(S(=O)(=O)O)cc1-n1nc(C(=O)Nc2ccccc2)n[n+]1-c1cc(S(=O)(=O)[O-])c([N+](=O)[O-])cc1OC	> 100 µM	> 100 µM	> 100 µM	> 100 µM	> 100 µM	> 100 µM	–	> 100 µM	> 100 µM	> 100 µM	–	–	–	–	–	–	–	–	–	–
O=C1NC2(CCCCC2)C(=O)N1CCN(CCCl)CCCl	> 25 µM and 242 µM	25 µM and 175 µM	> 250 µM	> 25 µM	> 250 µM	25 µM	> 250 µM	> 250 µM	> 25 µM	25 µM and 183 µM	> 25 µM	19.5 µM	> 25 µM	–	> 244 µM	–	> 25 µM	> 25 µM	–	11.8 µM
Cc1ccc(Cl)c(NS(=O)(=O)c2ccc(-c3cnc(C4CC4)o3)cc2)c1	34.8 µM	10.1 µM	25.9 µM	> 68.6 µM	4.17 µM	> 63.3 µM	0.303 µM	80.6 µM	> 100 µM	–	0.0472 µM	0.0531 µM	0.0407 µM	0.077 µM	0.0674 µM	0.0549 µM	0.0286 µM	2.1 µM	0.288 µM	0.0451 µM
